The values that follow are results of earlier work, collected in patent US20060069047A1, “Antibiotic conjugates” (priority 2002, published 2006).

SMILES strings stand for the structures.

For data set [1] the following is noted: in vivo.
The subject of another data set is PMN. The conditions noted are these: intracellular/extracellular concentration, PMN incubated 1 h.

Consider `CC[C@H]1OC(=O)[C@H](C)[C@@H](O[C@H]2C[C@@](C)(OC)[C@@H](O)[C@H](C)O2)[C@H](C)[C@@H](O[C@@H]2O[C@H](C)C[C@H](N(C)C)[C@H]2O)[C@](C)(O)C[C@@H](C)CN(C)[C@H](C)[C@@H](O)[C@]1(C)O` [Azithromycin], for which, in data set [1], the “half-life (t1/2)” value was approximately 68 h. In the data set on phagocytic cells, the “cellular-to-extracellular concentration ratio (C/E)” value is recorded as approximately 500. Moreover, the I/E ratio in the data set with PMN is listed as 517.

With `C[C@H]1COc2c(N3CCN(C)CC3)c(F)cc3c(=O)c(C(=O)O)cn1c23` [Levofloxacin], the I/E ratio with PMN is on record as 4.8.

For the compound `COc1c(N2C[C@@H]3CCCN[C@@H]3C2)c(F)cc2c(=O)c(C(=O)O)cn(C3CC3)c12` [Moxifloxacin], the I/E ratio in the data set on PMN is on record as 12.0.

As for `CC1(C)SC2C(NC(=O)Cc3ccccc3)C(=O)N2C1C(=O)O` (stereo not shown) [Penicillin G, 3,3-Dimethyl-7-oxo-6-phenylacetylamino-4-thia-1-aza-bicyclo[3.2.0]heptane-2-carboxylic acid], the I/E ratio in the data set on PMN was 0.16.

As for `CC[C@H]1OC(=O)[C@H](C)C(=O)[C@H](C)[C@@H](O[C@@H]2O[C@H](C)C[C@H](N(C)C)[C@H]2O)[C@](C)(OC)C[C@@H](C)C(=O)[C@H](C)[C@H]2N(CCCCn3cnc(-c4cccnc4)c3)C(=O)O[C@]12C` [Telithromycin], in the data set on PMN, the I/E ratio is 197.
